Measured values as given in PMC9905731, “PIN1 and PIN4 inhibition via parvulin impeders Juglone, PiB, ATRA, 6,7,4′-THIF, KPT6566, and EGCG thwarted hepatitis B virus replication” (Frontiers in Microbiology, 2023).

Tests used:
[1] = tested on: HBV cccDNA; assay: HBV cccDNA levels by Hirt extraction and Southern blotting; type: cell-based, hepatitis B virus; settings: HBV-infected HepG2-hNTCP-C9 cells, 10 days; 20 μM Juglone or PiB, 30 μM ATRA, 6,7,4′-THIF or KPT-6566, 40 μM EGCG
Protocol: Mock-infected HepG2-hNTCP-C9 cells (lane 1) or HBV-infected HepG2-hNTCP-C9 cells (lanes 2–3) were treated with solvent (lane 2) or 20 μM Juglone, 20 μM PiB, 30 μM ATRA, 30 μM 6,7,4′-THIF, 30 μM KPT6566, or 40 μM EGCG (lane 3) for 10 days. HBV cccDNA levels were determined by the Hirt extraction method, as described previously ([Saeed et al., 2019]). Data are presented from three independent experiments.
(§1) HBV cccDNA synthesis was examined using the protein-free Hirt cccDNA extraction method. Briefly, HBV-infected PIN1 or PIN4 KD cells at approximately 100% confluency were incubated for 10 days, lysed with 10 mM EDTA and 10 mM Tris–HCl [pH 7.5] containing 0.6% SDS-TE buffer, treated for 16 h by adding 5 M NaCl to the final concentration of 1 M, and precipitated by centrifugation for 30 min at 14,500 × g. The supernatants were subjected to multiple phenol extractions (two times) followed by cccDNA extraction via phenol/chloroform. The supernatant containing cccDNA was precipitated by ethanol and furthermore analyzed by Southern blotting. The HBV cccDNA ChIP was performed using cccDNA-specific primers and analyzed by PCR (GeneAmp 2,700, Applied Biosystems), as described previously ([Bichko et al., 1985]; [Piracha et al., 2018], [2020]; [Saeed et al., 2019], [2021]). From the clinical specimens, HBV cccDNA levels were examined, as described previously ([Zhang et al., 2017]), using 251F 5′-GAC TYG TGG TGG ACT TCT C-3′ and 1190R 5′-TCA GCA AAY ACT YGG CA-3′ set of primers.

[2] = tested on: HBV cccDNA; assay: Chromatin immunoprecipitation (ChIP) in HBV-infected HepG2-hNTCP-C9-PIN4 KD cells; type: cell-based, hepatitis B virus; settings: 20 μM Juglone or PiB, 30 μM ATRA, 6,7,4′-THIF or KPT6566, 40 μM EGCG, vs solvent
Protocol: Chromatin immunoprecipitation (ChIP) was performed in HBV-infected HepG2-hNTCP-C9 PIN1 or PIN4 KD cells to determine the comparative effects of these parvulins on cccDNA (Figure 11D). The chromatins were prepared and immunoprecipitated with IgG or anti-PIN1, HBc, PIN4, acetylated H3 (anti-AcH3), RNA polymerase-II (anti-RNA Pol-II), and histone H3 antibodies and furthermore analyzed by semiquantitative PCR (GeneAmp PCR 2700, Applied Biosystems; [Bichko et al., 1985]; [Saeed et al., 2019], [2021]; [Piracha et al., 2020]). In contrast to endogenous PIN1, the endogenous PIN4 was recruited to HBV cccDNA. Of note, upon PIN1 KD, the recruitment of HBc protein to the cccDNA remains unchanged.
(A–F) HepG2-hNTCP-C9-PIN4 KD cells were mock-infected (lane 1) or HBV infected (lanes 2–3) and treated with solvent (lane 2), or parvulin inhibitors (A) 20 μM Juglone, (B) 20 μM PiB, (C) 30 μM ATRA, (D) 30 μM 6,7,4′-THIF, (E) 30 μM KPT6566, and (F) 40 μM EGCG. The chromatin solutions and ChIP were performed in HBV-infected HepG2-hNTCP-C9-PIN4 KD cells, as described in the “Material and Methods” section and were subjected to immunoprecipitation with normal rabbit polyclonal IgG, anti-PIN1, anti-PIN4, anti-RNA Pol II, anti-acetyl H3, or anti-H3 antibodies. The immunoprecipitated chromatins were analyzed by PCR. The presented data are representative of three independent experiments.
as §1

[3] = target: T1, PIN1 (Homo sapiens, UniProt Q13526); assay: PIN1 expression by immunoblotting in HCC cells; type: cell-based; settings: 30 μM ATRA, 72 h
T1 construct: Since the endogenous PIN1 and PIN4 levels remained higher in HBV replicating and non-replicating HCC-derived cell lines; endogenous in cells; host or cells: Huh7, HepAD38, HepG2, HepG2.2.15 (human HCC cell lines)

[4] = target: PIN4 (Homo sapiens, UniProt Q9Y237); assay: PIN4 expression by immunoblotting in HCC cells; type: cell-based; settings: 30 μM ATRA, 72 h
Sequence of PIN4 (Q9Y237 whole entry): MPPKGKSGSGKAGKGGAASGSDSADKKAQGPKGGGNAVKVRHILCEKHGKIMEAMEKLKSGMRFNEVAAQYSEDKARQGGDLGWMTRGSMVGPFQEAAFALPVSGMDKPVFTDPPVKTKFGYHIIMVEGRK

T1 sequence (Q13526 whole entry): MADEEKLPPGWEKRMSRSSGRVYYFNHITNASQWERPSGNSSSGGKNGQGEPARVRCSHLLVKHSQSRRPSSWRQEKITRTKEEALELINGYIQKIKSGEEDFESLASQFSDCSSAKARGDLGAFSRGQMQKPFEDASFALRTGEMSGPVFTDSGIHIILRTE

Row | Structure (SMILES) | HBV cccDNA levels [1] | recruitments of endogenous PIN4 and HBc onto HBV cccDNA [2] | expression level of PIN1 [3] | expression level of PIN4 [4]
1 | CCOC(=O)CN1C(=O)c2ccc3c4c(ccc(c24)C1=O)C(=O)N(CC(=O)OCC)C3=O [PiB, 1,3,6,8-tetrahydro-1,3,6,8-tetraoxo-benzo [lmn][3,8] phenanthroline-2,7-diacetic acid, 2,7-diethyl ester] | without affecting HBV cccDNA levels | reduced |  | 
2 | O=C(O[C@@H]1Cc2c(O)cc(O)cc2O[C@@H]1c1cc(O)c(O)c(O)c1)c1cc(O)c(O)c(O)c1 [EGCG, Epigallocatechin gallate] | without affecting HBV cccDNA levels | reduced |  | 
3 | O=C1C=CC(=O)c2c(O)cccc21 [Juglone, 5-hydroxyl-1,4-naphthoquinone] | without affecting HBV cccDNA levels | reduced |  | 
4 | CC(C)(C)c1ccc(S(=O)(=O)N=C2C=C(SCC(=O)O)C(=O)c3ccccc32)cc1 [KPT6566, 2-[[4-[[[4-(1,1-dimethylethyl)phenyl]sulfonyl]imino]-1,4-dihydro-1-oxo-2-naphthalenyl]thio] acetic acid] | without affecting HBV cccDNA levels | reduced |  | 
5 | CC1=C(/C=C/C(C)=C/C=C/C(C)=C/C(=O)O)C(C)(C)CCC1 [ATRA, All-trans-retinoic acid] | without affecting HBV cccDNA levels | reduced | reduced | reduced
6 | O=c1c(-c2ccc(O)cc2)coc2cc(O)c(O)cc12 [6,7,4′-THIF, 6,7-dihydroxy-3-(4-hydroxyphenyl)-4H-chromen-4-one] | without affecting HBV cccDNA levels | reduced |  | 
